These results are taken from US6620801B2, “17β-amino and hydroxylamino-11β-arylsteroids and their derivatives having agonist or antagonist hormonal properties” (Research Triangle Institute, priority 1998, dated 2003).

Each structure is given as a SMILES string.

The subject of assay [1] is rabbits. The experiment in a line: McGinty test (progestational/agonist activity, McPhail score). The class given is in vivo. More on the design: McPhail Index, McGinty Assay (Agonist): scale not given here. As to conditions: rabbit; for McPhail Index, McGinty Assay (Agonist): test compound alone. The text has this: (§1) Results were scored according to McPhail (McPhail, J. Physiol., 83: 146 (1934)). These are standard procedures well-known to those skilled in the art. The results of these assays are shown in Tables 2 (agonist activity) and 3 (antagonist activity). […] Some compounds were extremely potent in this regard.

In assay [2] the test system is rabbits. In words: Anti-McGinty test (antiprogestational/antagonist activity, test compound plus progesterone, McPhail score). The class given is in vivo. Also noted: McPhail Index, Anti-McGinty Assay (Antagonist): scale not given here. As to conditions: rabbit; for McPhail Index, Anti-McGinty Assay (Antagonist): test compound plus progesterone; for Blocking the action of progesterone in the anti-McGinty assay: dose of only 0.3 μg.
Text: as §1

Assay [3] concerns the target T1, human progesterone hormone receptor (Homo sapiens, UniProt P06401).
T1 construct: The receptor was obtained in cytosol from human T-47D breast cells and [^3H]-R5020 was used as the radioligand; endogenous in cells; host or cells: human T-47D breast cells (cytosol, 34,000 x g supernatant)
T1 sequence (P06401 1-933): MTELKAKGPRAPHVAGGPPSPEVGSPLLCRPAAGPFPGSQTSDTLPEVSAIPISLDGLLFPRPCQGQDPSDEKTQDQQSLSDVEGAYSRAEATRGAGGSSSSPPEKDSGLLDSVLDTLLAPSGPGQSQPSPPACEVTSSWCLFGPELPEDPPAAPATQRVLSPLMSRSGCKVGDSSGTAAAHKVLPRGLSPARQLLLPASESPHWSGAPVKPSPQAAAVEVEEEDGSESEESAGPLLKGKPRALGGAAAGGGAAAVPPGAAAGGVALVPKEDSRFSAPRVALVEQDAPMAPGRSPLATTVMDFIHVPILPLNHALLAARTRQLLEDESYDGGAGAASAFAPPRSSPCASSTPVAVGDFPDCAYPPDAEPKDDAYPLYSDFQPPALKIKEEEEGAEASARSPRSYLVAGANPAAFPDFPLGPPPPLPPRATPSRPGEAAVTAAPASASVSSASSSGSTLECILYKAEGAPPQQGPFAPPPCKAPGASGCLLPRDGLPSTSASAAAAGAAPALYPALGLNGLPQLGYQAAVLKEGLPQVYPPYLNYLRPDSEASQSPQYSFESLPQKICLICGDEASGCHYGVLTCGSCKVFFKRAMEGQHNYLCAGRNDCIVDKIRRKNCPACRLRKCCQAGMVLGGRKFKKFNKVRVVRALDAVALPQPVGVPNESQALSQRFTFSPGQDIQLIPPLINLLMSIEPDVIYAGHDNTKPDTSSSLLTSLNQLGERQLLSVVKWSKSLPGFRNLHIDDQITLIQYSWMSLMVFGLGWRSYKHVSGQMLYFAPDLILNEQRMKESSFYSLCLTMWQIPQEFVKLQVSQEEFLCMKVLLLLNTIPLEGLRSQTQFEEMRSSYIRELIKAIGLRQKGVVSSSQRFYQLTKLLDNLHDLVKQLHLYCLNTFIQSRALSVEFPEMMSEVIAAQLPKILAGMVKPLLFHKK
In words: Receptor binding, inhibition of [3H]-R5020 binding in T-47D cytosol. The note with it: cytosol from human T-47D breast cells, 0.4 nM [3H]-R5020, 4 hours at 4° C.; read-out: Relative Binding Affinity hPR IC50. As to the method:
The receptor was obtained in cytosol from human T-47D breast cells and [^3H]-R5020 was used as the radioligand. T47D cells (1 billion/ml) were homogenized in TEDG buffer (10 mM Tris, 1.5 mM EDTA, 1 mM dithiothreitol, 1 mM sodium molybdate, and 10% glycerol) using a Dounce pestle A, and the homogenate was centrifuged at 34,000×g for 1 hour. The supernatant was stored at −80° C. An aliquot of receptor preparation was combined with test compound, 0.4 nM [^3H]-R5020, and TEDG buffer to a final volume of 150 μL and incubated for 4 hours at 4° C. in microtiter plates. At the end of incubation 40 μL 40% polyethylene glycol and 15 μL 1% human gamma globulin was added to the incubate and the contents of each well were harvested onto double thick B filter mats (Wallac LKB) using a TomTec harvester. A film of Meltilux scintillant wax was applied to the dried filter mats and the mats were counted in a scintillation counter to determine inhibition of [^3H]-R5020 binding. Data are expressed as IC50 values, i.e., the concentration of compound that inhibits radioligand binding by 50%.

Another assay concerns immature female rabbits. In words: Anti-estrogenic activity, uterine weight in estradiol-treated immature female rabbits. The class given is in vivo, rabbit. The note with it: ± S.E., no estradiol 216.7±37.2 mg.

As a reminder, the IC50 is the midpoint of a concentration-inhibition curve. On to `CC1CCC2(CCC3C4CCC5=CC(=O)CCC5=C4C(c4ccc(N(C)C)cc4)CC32C)N1O` (stereo not drawn) [11β-[4-(N,N-Dimethylamino)phenyl]-1′-hydroxy-5′-methyl-spiro[estra-4,9-dien-17β,2′-pyrrolidine]-3-one], for which the “McPhail Index, McGinty Assay (Agonist)” value in the assay with rabbits [1] (dose 0.3 micrograms), with rabbits [1] (dose 3 micrograms) and in the assay on rabbits [1] (dose 30 micrograms) was 0 ± 0 each time. In addition, the figures for the “McPhail Index, Anti-McGinty Assay (Antagonist)” value (from here on “McPhail Index … (Antagonist)”) in the assay on rabbits [2] (dose 0.3 micrograms), in the assay with rabbits [2] (dose 3 micrograms) and in the assay on rabbits [2] (dose 30 micrograms) were 2.1 ± 0.3, 2.4 ± 0.4 and 0.7 ± 0.4, respectively. In addition, the IC50 in assay [3] worked out at 5.2 nM.
Consider `CN(C)c1ccc(C2CC3(C)C(CCC34CCCN4O)C3CCC4=CC(=O)CCC4=C23)cc1` (stereo not drawn) [11β-[4-(N,N-Dimethylamino)phenyl]-1′-hydroxy-spiro[estra4,9-dien-17β,2′-pyrrolidine]-3-one], for which the “McPhail Index, McGinty Assay (Agonist)” value in the assay on rabbits [1] (dose 0.3 micrograms), in the assay with rabbits [1] (dose 3 micrograms) and in the assay with rabbits [1] (dose 30 micrograms) was 0 ± 0 each time. In addition, the “McPhail Index … (Antagonist)” value with rabbits [2] (dose 0.3 micrograms) is 2.7 ± 0.0; in the assay on rabbits [2] (dose 3 micrograms), 2.3 ± 0.5; with rabbits [2] (dose 30 micrograms), 0.07 ± 0.07. The IC50 in assay [3] is 3.5 nM.
Molecule `CC#C[C@]1(NC=O)CC[C@H]2[C@@H]3CCC4=CC(=O)CCC4=C3[C@@H](c3ccc(N(C)C)cc3)C[C@@]21C` [11β-[4-(N,N-Dimethylamino)phenyl]-17β-(N-formamido)-17α-(1-propynyl)estra-4,9-dien-3-one] displayed a Uterine weight with immature female rabbits (compound orally at 10 mg/day concurrently with 5 μg of estradiol per day) of 716 ± 96.6 mg. The “McPhail Index, McGinty Assay (Agonist)” value with rabbits [1] (dose 0.3 micrograms), with rabbits [1] (dose 3 micrograms) and with rabbits [1] (dose 30 micrograms) was 0 ± 0 each time. Besides, the “McPhail Index … (Antagonist)” value with rabbits [2] (dose 0.3 micrograms), in the assay with rabbits [2] (dose 3 micrograms) and in the assay with rabbits [2] (dose 30 micrograms) was 0 ± 0 in each case. Besides, the “Blocking the action of progesterone in the anti-McGinty assay” value in the assay with rabbits [2] is on record as “completely effective in blocking the action of progesterone”. Further, in assay [3], the IC50 stood at 0.7 nM.
On to `CC#CC1(N(C)O)CCC2C3CCC4=CC(=O)CCC4=C3C(c3ccc(N(C)C)cc3)CC21C` (stereo not drawn) [11β-[4-(N,N-Dimethylamino)phenyl]-17β-(N-hydroxy-N-methylamino)-17α-(1-propynyl)estra-4,9-dien-3-one], for which the “McPhail Index, McGinty Assay (Agonist)” value with rabbits [1] (dose 0.3 micrograms), with rabbits [1] (dose 3 micrograms) and with rabbits [1] (dose 30 micrograms) was 0 ± 0 each time. Moreover, the results for the “McPhail Index … (Antagonist)” value in the assay with rabbits [2] (dose 0.3 micrograms), with rabbits [2] (dose 3 micrograms) and in the assay with rabbits [2] (dose 30 micrograms) were 2.0 ± 0.2, 0 ± 0 and 0 ± 0, respectively. Besides, the IC50 in assay [3] was 7.1 nM.
In the case of `CC#C[C@]1(NO)CC[C@H]2[C@@H]3CCC4=CC(=O)CCC4=C3[C@@H](c3ccc(N(C)C)cc3)C[C@@]21C` [11β-[4-(N,N-Dimethylamino)phenyl]-17β-(N-hydroxylamino)-17α-(1-propynyl)estra-4,9-dien-3-one], the “Progestational (agonist) activity in the McGinty assay” value in the assay on rabbits [1] (at high doses) is listed as “some progestational (agonist) activity”. Further, the “McPhail Index, McGinty Assay (Agonist)” value with rabbits [1] (dose 0.3 micrograms) was 0 ± 0; in the assay on rabbits [1] (dose 3 micrograms), 0 ± 0; in the assay with rabbits [1] (dose 30 micrograms), 0.7 ± 0.0. The “Progestational (agonist) activity in the anti-McGinty assay” value with rabbits [2] (at the highest dose) is recorded as “some progestational (agonist) activity”. Further, the “McPhail Index … (Antagonist)” value in the assay on rabbits [2] (dose 0.3 micrograms) was 0 ± 0; in the assay with rabbits [2] (dose 3 micrograms) it was 0 ± 0; in the assay on rabbits [2] (dose 30 micrograms), 2.5 ± 0.4. Besides, in the assay on rabbits [2], the “Blocking the action of progesterone in the anti-McGinty assay” value is on record as “completely effective in blocking the action of progesterone”. Moreover, the IC50 in assay [3] was determined as 14.3 nM.
For `CC#CC1(NC(C)=O)CCC2C3CCC4=CC(=O)CCC4=C3C(c3ccc(N(C)C)cc3)CC21C` (stereo not drawn) [17β-(N-Acetamido)-11β-[4-(N,N-dimethylamino)phenyl]-17α-(1-propynyl)estra-4,9-dien-3-one], the “McPhail Index, McGinty Assay (Agonist)” value with rabbits [1] (dose 0.3 micrograms), in the assay with rabbits [1] (dose 3 micrograms) and in the assay on rabbits [1] (dose 30 micrograms) was 0 ± 0 each time. Besides, the entries for the “McPhail Index … (Antagonist)” value in the assay with rabbits [2] (dose 0.3 micrograms), with rabbits [2] (dose 3 micrograms) and in the assay with rabbits [2] (dose 30 micrograms) were 1.8 ± 0.3, 0.1 ± 0.1 and 0 ± 0, respectively. In addition, the IC50 in assay [3] amounted to 1.3 nM.
As to `CC#C[C@]1(N)CC[C@H]2[C@@H]3CCC4=CC(=O)CCC4=C3[C@@H](c3ccc(N(C)C)cc3)C[C@@]21C` [17β-Amino-11β-[4-(N,N-dimethylamino)phenyl]-17α-(1-propynyl)estra-4,9-dien-3-one], the “McPhail Index, McGinty Assay (Agonist)” value with rabbits [1] (dose 0.3 micrograms), in the assay on rabbits [1] (dose 3 micrograms) and with rabbits [1] (dose 30 micrograms) was 0 ± 0 throughout. The “McPhail Index … (Antagonist)” value in the assay on rabbits [2] (dose 0.3 micrograms) stood at 1.6 ± 0.3; with rabbits [2] (dose 3 micrograms), 0.2 ± 0.1; in the assay with rabbits [2] (dose 30 micrograms) it was 0 ± 0. Moreover, the IC50 in assay [3] was 8.3 nM.
In the assay on immature female rabbits (estradiol alone, 5 μg per day), `C[C@]12CC[C@@H]3c4ccc(O)cc4CC[C@H]3[C@@H]1CC[C@@H]2O` [estradiol, reference compound] yielded a Uterine weight of 1337 ± 105 mg.
